Results from publication PMC3740032 (Bioorganic & medicinal chemistry, 2013).
Where “and” joins values, the source holds several entries; their conditions need not be identical. Equal values may be shown once.

How the values were obtained:
[1] = Prodrug aqueous stability at pH 7.4, 6.0 and 1.2; format: physicochemical
[2] = cited from earlier work
[3] = cited from earlier work; remark: listed apart in the source
BlaC = settings: cited from earlier work

## CC(=O)N1C[C@@H](SC2=C(C(=O)OCOC(=O)O[C@H]3CCCCc4ccccc43)N3C(=O)[C@H]([C@@H](C)O)[C@H]3[C@H]2C)C[C@H]1C(=O)N(C)C [Compound 24a, (S)-Benzosuber-1-yloxycarbonyloxymethyl (1R,5S,6S)-2-{[(2S,4S)-1-acetyl-2-(N,N-dimethylcarbamoyl)pyrrolidin-4-yl]thio}-6-[(1R)-1-hydroxyethyl]-1-methylcarbapen-2-em-3-carboxylate]
[1]; N-acetyl derivative, aqueous buffers
  change in the hydrolysis rate relative to prodrug 19: no significant change

## C[C@@H](O)[C@H]1C(=O)N2C(C(=O)OCOC(=O)O[C@H]3CCCCc4ccccc43)=C(S[C@@H]3CN[C@H](C(=O)N(C)C)C3)[C@H](C)[C@H]12 [Compound 19, (S)-Benzosuber-1-yloxycarbonyloxymethyl (1R, 5S,6S)-2-{[(2S,4S)-2-(N,N-dimethylcarbamoyl)pyrrolidin-4-yl]thio}-6-[(1R)-1-hydroxyethyl]-1-methylcarbapen-2-em-3-carboxylate]
[1]; intestinal pH
  times more stable to hydrolysis compared with 1-tetralyl (18 and 21) and 1-indanyl (17 and 20) prodrugs: 37 times
[1]; physiological pH
  times more stable to hydrolysis compared with 1-tetralyl (18 and 21) and 1-indanyl (17 and 20) prodrugs: 20 times

## C[C@@H](O)[C@H]1C(=O)N2C(C(=O)O)=C(S[C@@H]3CN[C@H](C(=O)N(C)C)C3)[C@H](C)[C@H]12 [Meropenem]
[2]
  oral absorption: negligible
[3]
  Log D: < −2.5

## O=C(O)[C@H]1/C(=C/CO)O[C@@H]2CC(=O)N21 [clavulanate]
BlaC
  inhibition of BlaC: irreversibly inhibited

## C[C@@H](O)[C@H]1C(=O)N2C(C(=O)OCOC(=O)O[C@@H]3CCc4ccccc43)=C(S[C@@H]3CN[C@H](C(=O)N(C)C)C3)[C@H](C)[C@H]12 [Compound 20, (R)-Indan-1-yloxycarbonyloxymethyl (1/R, 5S,6S)-2-{[(2S,4S)-2-(N,N-dimethylcarbamoyl)pyrrolidin-4-yl]thio}-6-[(1/R)-1-hydroxyethyl]-1-methylcarbapen-2-em-3-carboxylate]
[1]; buffer, pH 7.4
  half-life at 100 µM: < 1 min

## CC(OC(=O)O[C@H]1CCCCc2ccccc21)OC(=O)C1=C(S[C@@H]2CN[C@H](C(=O)N(C)C)C2)[C@H](C)[C@@H]2[C@@H]([C@@H](C)O)C(=O)N12 (stereo partly drawn) [Compound 23a, (1S,1′S/R)-Benzosuber-1-yloxycarbonyloxyethyl (1R,5S,6S)-2-{[(2S,4S)-2-(N,N-dimethylcarbamoyl)pyrrolidin-4-yl]thio}-6-[(1R)-1-hydroxyethyl]-1-methylcarbapen-2-em-3-carboxylate]
[1]; 100 µM
  improvement of stability relative to prodrug 19: about 2 fold

## CC(C)OC(=O)OC(C)OC(=O)C1=C(S[C@@H]2CN[C@H](C(=O)N(C)C)C2)[C@H](C)[C@@H]2[C@@H]([C@@H](C)O)C(=O)N12 (some centres unmarked) [Compound 2]
[1]; physiological pH 7.4, period of 2 hours
  % of each diastereomer hydrolyzed to 1: 10% and 13%

## C[C@@H](O)[C@H]1C(=O)N2C(C(=O)OCOC(=O)O[C@@H]3CCCCc4ccccc43)=C(S[C@@H]3CN[C@H](C(=O)N(C)C)C3)[C@H](C)[C@H]12 [Compound 22, (R)-Benzosuber-1-yloxycarbonyloxymethyl (1R,5S, 6S)-2-{[(2S,4S)-2-(N,N-dimethylcarbamoyl)pyrrolidin-4-yl]thio}-6-[(1R)-1-hydroxyethyl]-1-methylcarbapen-2-em-3-carboxylate]
[1]; intestinal pH
  times more stable to hydrolysis compared with 1-tetralyl (18 and 21) and 1-indanyl (17 and 20) prodrugs: 37 times
[1]; physiological pH
  times more stable to hydrolysis compared with 1-tetralyl (18 and 21) and 1-indanyl (17 and 20) prodrugs: 20 times
